This note sets out measurements from ChEMBL document CHEMBL3627610 (Eur J Med Chem, 2015).

Usually EC50 stands for the concentration giving half of the maximal effect. For orientation: Emax means the greatest response seen or fitted, relative to the assay's reference. A word on the Ki: it is a dissociation constant, usually derived from enzyme kinetics or from competition with a known ligand.

Structures are written as SMILES. Activity calls are given as the source filed them. The calls are words filed in the database; no cut-off is given here.

Test [1] is described as follows: Agonist activity at melatonin receptor in Xenopus laevis melanophores assessed as effect on pigment aggregation after 60 mins by microtiter plate reader assay.
The species entered for test [2] is Xenopus laevis. The experiment in a line: Agonist activity at melatonin receptor in Xenopus laevis melanophores assessed as effect on pigment aggregation at 10^-12 to 10^-5 M after 60 mins by microtiter plate reader assay.
For test [3], the species on record is Xenopus laevis. The test is described as follows: Antagonist activity at melatonin receptor in Xenopus laevis melanophores assessed as effect on pigment aggregation at 10^-4 M after 60 mins by microtiter plate reader assay.
For test [4], the species on record is Xenopus laevis. The test is described as follows: Agonist activity at melatonin receptor in Xenopus laevis melanophores assessed as effect on pigment aggregation at 10^-5 M after 60 mins by microtiter plate reader assay.
Test [5] deals with Melatonin receptor type 1A (Homo sapiens, UniProt P48039). The experiment in a line: Displacement of 2-[125I]iodomelatonin from human recombinant MT1 expressed in CHO cell membranes incubated for 60 mins by liquid scintillation spectrometry.
In test [6] the target is T1, Melatonin receptor type 1B (Homo sapiens, UniProt P49286).
T1 sequence (P49286 whole entry): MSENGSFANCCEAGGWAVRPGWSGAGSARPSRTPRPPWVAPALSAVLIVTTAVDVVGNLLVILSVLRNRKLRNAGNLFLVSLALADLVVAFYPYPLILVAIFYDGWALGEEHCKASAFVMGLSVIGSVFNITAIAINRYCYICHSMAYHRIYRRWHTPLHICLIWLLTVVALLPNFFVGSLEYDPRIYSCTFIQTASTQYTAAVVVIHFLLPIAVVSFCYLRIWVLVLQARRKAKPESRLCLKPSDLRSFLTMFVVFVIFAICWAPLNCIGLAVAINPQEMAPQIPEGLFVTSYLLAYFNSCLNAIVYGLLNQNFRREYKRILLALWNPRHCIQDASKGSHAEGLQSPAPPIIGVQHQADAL
The test is described as follows: Displacement of 2-[125I]iodomelatonin from human recombinant MT2 expressed in CHO cell membranes incubated for 120 mins by liquid scintillation spectrometry.

Sequence of Melatonin receptor type 1A (P48039 whole entry): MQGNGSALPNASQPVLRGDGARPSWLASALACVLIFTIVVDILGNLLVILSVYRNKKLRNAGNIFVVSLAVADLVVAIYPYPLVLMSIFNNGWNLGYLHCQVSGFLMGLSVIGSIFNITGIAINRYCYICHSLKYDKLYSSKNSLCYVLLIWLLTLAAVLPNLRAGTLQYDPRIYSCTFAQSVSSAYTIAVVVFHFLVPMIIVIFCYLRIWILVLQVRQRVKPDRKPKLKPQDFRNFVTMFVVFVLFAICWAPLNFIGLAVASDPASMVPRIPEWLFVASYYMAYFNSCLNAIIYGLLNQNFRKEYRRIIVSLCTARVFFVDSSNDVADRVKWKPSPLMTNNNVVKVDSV

Regarding `COc1ccc2[nH]cc(CCNC(C)=O)c2c1` [MELATONIN], the concentration for a half-maximal effect (EC50) in test [1] is 0.074 nM. For the same molecule, in test [2], the Emax came out at 100%.
Take `COc1ccc2c(CCCNC(C)=O)cc(=O)oc2c1`: in test [3], the inhibition result was “Active”. Further, the result in test [4] was inactive.
Turning to `COc1ccc2oc(=O)cc(CCNC(C)=O)c2c1`, the inhibition entry in test [3] is “Active”. Besides, the EC50 in test [1] stood at 118 nM. In addition, the maximum response (Emax) in test [2] worked out at 89%. The Ki in test [5] turned out to be 13 nM; in test [6], 3.4 nM.
